According to US20110281807A1, “PLANT DISEASE CONTROL AGENT COMPRISING D-TAGATOSE AS ACTIVE INGREDIENT, AND PLANT DISEASE CONTROL METHOD” (NATIONAL UNIVERSITY CORPORATION KAGAWA UNIVERSITY, priority 2008, published 2011):
Like-named read-outs stand apart in the source and are kept apart here.

How the values were obtained:
Phytophthora infestans = assay: whole plant or invertebrate; format: in vivo; conditions: for Preventive value: alone
Pyricularia oryze = assay: whole plant or invertebrate; format: in vivo
Pythium aphanidermatum = assay: cucumber damping-off, pot test: soil drench of D-tagatose combined with fungicides
Protocol: Five seeds of test plants (cucumber, variety: Sagami hanpaku) were sowed in a pot (5×5 cm), which contains infested soil with Pythium aphanidermatum (mycelium 100 g/1 L soil) and was covered with soil. D-Tagatose was diluted to 5000 ppm and the fungicides were diluted to the concentrations listed in table 18, with distilled water. The pot was drenched with 10 ml of the dilution. After 2 weeks, the disease severity of the test plants was observed and the effectiveness of test sample was judged. Tests were carried out in triplicate using 5 plants for each test set and the preventive value was calculated from the germination rate.

Plasmopara viticola = conditions: for Preventive value: alone
Protocol: Test plants (variety: Neo Muscat) were seeded and grown until three leaves. D-Tagatose was diluted to 5000 ppm and the fungicides were diluted to the concentrations listed in table 16, with distilled water, and 10 ml of the dilution was sprayed on the plants. Three days after the spraying of the dilution, the plants were infected by spraying a sporangium suspension of Plasmopara viticola containing 1×10^3/ml and then put for 16 hours in an inoculation chamber (20° C. to 23° C.) to promote disease. The disease severity of the test plants was observed 7 days after inoculation, and the effectiveness of test sample was judged.

[1] = system: Pseudoperonospora cubensis; conditions: for Preventive value: alone, curative
Protocol: Test plants (cucumber, variety: Sagami hanpaku) were seeded and grown until the one true leaf stage. And then, a sporangium suspension of Pseudoperonospora cubensis containing 1×10^3/ml were spraying for inoculation on the back side of the leaves of test plants and then put for 16 hours in an inoculation chamber (20° C. to 23° C.) to promote disease. For a curative test, the inoculated plants as described above were used.
D-Tagatose was diluted to 5000 ppm and the fungicides were diluted to the concentrations listed in table 15, with distilled water, and 10 ml of the dilution was sprayed. Seven days after inoculation the disease severity of the test plants was observed and the effectiveness of test sample was judged.

[2] = system: Pseudoperonospora cubensis; conditions: for Preventive value: alone
Puccinia recondita = conditions: for Preventive value: wheat, compound alone
Protocol: Test plants (variety: Nourin 61 gou) were sowed and grown until two leaves stage.
D-Tagatose and fungicide were diluted to 10000 ppm and the concentration listed in table 19, respectively, with distilled water, and 10 ml of the dilution was sprayed thoroughly on the plants. Three days after the spraying of the dilution, the plants were inoculated with Puccinia recondita containing 1×10^3/ml and then put for 16 hours in an inoculation chamber (20° C. to 23° C.) to promote disease. Seven days after inoculation the disease severity of the test plants was observed and the effectiveness of test sample was judged.

Botrytis cinerea = conditions: for Preventive value: tomato, compound alone
[3] = system: Erysiphe graminis f.sp. hordei; conditions: for Preventive value: barley, compound alone
Sphaerotheca fuliginea = conditions: for Preventive value: cucumber, compound alone
Protocol: Test plants (cucumber, variety: Sagami hanpaku) were seeded and grown until the one true leaf stage. D-Tagatose and fungicide were diluted to 5000 ppm and the concentrations listed in table 20, respectively, with distilled water and 10 ml of the dilution was sprayed thoroughly on the plants. Three days after spraying, a condia suspension containing of Sphaerotheca fuliginea were inoculated by spraying on test plants.
Seven days after inoculation the disease severity of the test plants was observed and the effectiveness of test sample was judged.

[4] = Phytophthora infestans, in Solanum lycopersicum, 168 h, read-out: Preventive value
[5] = Pyricularia, in Oryza sativa, 168 h, read-out: Preventive value
[6] = Pythium aphanidermatum, in Cucumis sativus, soil, 336 h, read-out: Preventive value
[7] = Plasmopara viticola, 168 h, read-out: Preventive value
[8] = Pseudoperonospora cubensis, in Cucumis sativus, 168 h, read-out: Preventive value
[9] = Puccinia recondita, in Triticum aestivum, 168 h, read-out: Preventive value
[10] = Botrytis cinerea, in Solanum lycopersicum, 168 h, read-out: Preventive value
[11] = Blumeria graminis, in Hordeum vulgare, 168 h, read-out: Preventive value
[12] = Podosphaera fuliginea, in Cucumis sativus, 168 h, read-out: Preventive value

For `CCC(C)(NC(=O)c1cc(Cl)c(C)c(Cl)c1)C(=O)CCl` (stereo not drawn) [zoxamide], the pest or weed control at 2 ppm (Phytophthora infestans; [4]) was 50%, the pest or weed control at 250 ppm (Pyricularia oryze; [5]) was 0% and the pest or weed control at 250 ppm (Pythium aphanidermatum; [6]) was 0%. The pest or weed control at 2 ppm (Plasmopara viticola; [7]) was 83%, the pest or weed control at 2 ppm [1, 8] was 33% and the pest or weed control at 2 ppm [2, 8] was 67%.
For manzeb, the Preventive value (Phytophthora infestans; 10 ppm) was 67, the Preventive value (Puccinia recondita; 50 ppm) was 83 and the Preventive value (Botrytis cinerea; 50 ppm) was 40. For the same molecule, the Preventive value (Plasmopara viticola; 10 ppm) was 33, the Preventive value ([1]; 10 ppm) was 0 and the Preventive value ([2]; 10 ppm) was 90. For the same molecule, the Preventive value ([3]; 50 ppm) was 40 and the Preventive value (Sphaerotheca fuliginea; 50 ppm) was 50.
`CCCOC/C(=N\c1ccc(Cl)cc1C(F)(F)F)n1ccnc1` [triflumizole] was tested, and the pest or weed control at 2 ppm (Puccinia recondita; [9]) was 40%, the pest or weed control at 50 ppm (Botrytis cinerea; [10]) was 67% and the pest or weed control at 0.4 ppm [3, 11] was 50%. It also gave a pest or weed control at 0.4 ppm (Sphaerotheca fuliginea; [12]) of 97%.
`CCO[PH](=O)O` [fosethyl] was tested, and the Preventive value (Phytophthora infestans; 250 ppm) was 33, the Preventive value (Pythium aphanidermatum; alone, 250 ppm, soil drench) was 0 and the Preventive value (Puccinia recondita; 250 ppm) was 0. For the same molecule, the Preventive value (Plasmopara viticola; 250 ppm) was 0, the Preventive value ([1]; 250 ppm) was 0 and the Preventive value ([2]; 250 ppm) was 0. For the same molecule, the Preventive value ([3]; 250 ppm) was 17 and the Preventive value (Sphaerotheca fuliginea; 250 ppm) was 17.
Work on `CCNC(=O)NC(=O)/C(C#N)=N/OC` [cymoxanil] yielded a pest or weed control at 50 ppm (Phytophthora infestans; [4]) of 83%, a pest or weed control at 250 ppm (Pythium aphanidermatum; [6]) of 17% and a pest or weed control at 50 ppm (Plasmopara viticola; [7]) of 73%. For the same molecule, the pest or weed control at 50 ppm [1, 8] was 83% and the pest or weed control at 50 ppm [2, 8] was 33%.
In the case of `N#Cc1c(Cl)c(Cl)c(Cl)c(C#N)c1Cl` [chlorothalonil], the pest or weed control at 50 ppm (Phytophthora infestans; [4]) is reported as 83%, the pest or weed control at 50 ppm (Puccinia recondita; [9]) is reported as 83% and the pest or weed control at 50 ppm (Botrytis cinerea; [10]) is reported as 67%. For the same molecule, the pest or weed control at 50 ppm (Plasmopara viticola; [7]) was 73%, the pest or weed control at 50 ppm [1, 8] was 0% and the pest or weed control at 50 ppm [2, 8] was 83%. For the same molecule, the pest or weed control at 50 ppm [3, 11] was 33% and the pest or weed control at 50 ppm (Sphaerotheca fuliginea; [12]) was 50%.
Work on `C#CCOc1ccc(CCNC(=O)C(OCC#C)c2ccc(Cl)cc2)cc1OC` (stereo not drawn) [mandipropamid] yielded a Preventive value (Phytophthora infestans; 0.4 ppm) of 73, a Preventive value (Plasmopara viticola; 0.4 ppm) of 73 and a Preventive value ([1]; 0.4 ppm) of 40. The Preventive value ([2]; 0.4 ppm) was 67.
`CC(C)OC(=O)N[C@H](C(=O)N[C@H](C)c1nc2ccc(F)cc2s1)C(C)C` [benthiavalicarb-isopropyl] gave a pest or weed control at 0.4 ppm (Phytophthora infestans; [4]) of 73%, a pest or weed control at 250 ppm (Pythium aphanidermatum; [6]) of 0% and a pest or weed control at 250 ppm (Puccinia recondita; [9]) of 0%. For the same molecule, the pest or weed control at 250 ppm (Botrytis cinerea; [10]) was 0%, the pest or weed control at 0.4 ppm (Plasmopara viticola; [7]) was 50% and the pest or weed control at 0.4 ppm [1, 8] was 33%. For the same molecule, the pest or weed control at 0.4 ppm [2, 8] was 73%, the pest or weed control at 250 ppm [3, 11] was 0% and the pest or weed control at 250 ppm (Sphaerotheca fuliginea; [12]) was 0%.
`Cc1ccc(-c2c(Cl)nc(C#N)n2S(=O)(=O)N(C)C)cc1` [cyazofamid] gave a pest or weed control at 0.4 ppm (Phytophthora infestans; [4]) of 17%, a pest or weed control at 250 ppm (Pyricularia oryze; [5]) of 0% and a pest or weed control at 50 ppm (Pythium aphanidermatum; [6]) of 83%. It also gave a pest or weed control at 250 ppm (Puccinia recondita; [9]) of 0%, a pest or weed control at 250 ppm (Botrytis cinerea; [10]) of 0% and a pest or weed control at 0.4 ppm (Plasmopara viticola; [7]) of 50%. The pest or weed control at 0.4 ppm [1, 8] was 0%, the pest or weed control at 0.4 ppm [2, 8] was 73% and the pest or weed control at 250 ppm [3, 11] was 0%. For the same molecule, the pest or weed control at 250 ppm (Sphaerotheca fuliginea; [12]) was 0%.
In the case of `COC(=O)NC(=S)Nc1ccccc1NC(=S)NC(=O)OC` [thiophanate-methyl], the pest or weed control at 250 ppm (Phytophthora infestans; [4]) is reported as 0%, the pest or weed control at 250 ppm (Pyricularia oryze; [5]) is reported as 83% and the pest or weed control at 250 ppm (Pythium aphanidermatum; [6]) is reported as 0%. It also gave a pest or weed control at 10 ppm (Puccinia recondita; [9]) of 40%, a pest or weed control at 50 ppm (Botrytis cinerea; [10]) of 83% and a pest or weed control at 250 ppm (Plasmopara viticola; [7]) of 0%. For the same molecule, the pest or weed control at 250 ppm [1, 8] was 0%, the pest or weed control at 250 ppm [2, 8] was 0% and the pest or weed control at 10 ppm [3, 11] was 83%. It also gave a pest or weed control at 10 ppm (Sphaerotheca fuliginea; [12]) of 83%.
For `CCCCCCCCCCCCc1ccc(S(=O)(=O)O)cc1.CCCCCCCCCCCCc1ccc(S(=O)(=O)O)cc1.CCCCCCCCCCCCc1ccc(S(=O)(=O)O)cc1.NC(N)=NCCCCCCCCNCCCCCCCCN=C(N)N` [iminoctadine albesilate], the Preventive value (Phytophthora infestans; 250 ppm) was 0, the Preventive value (Pyricularia oryze; rice, compound alone, 250 ppm) was 50 and the Preventive value (Puccinia recondita; 250 ppm) was 40. The Preventive value (Botrytis cinerea; 10 ppm) was 67, the Preventive value (Plasmopara viticola; 250 ppm) was 0 and the Preventive value ([1]; 250 ppm) was 0. The Preventive value ([2]; 250 ppm) was 40, the Preventive value ([3]; 50 ppm) was 17 and the Preventive value (Sphaerotheca fuliginea; 50 ppm) was 83.
Work on `Cc1cccc2sc3nncn3c12` [tricyclazole] yielded a pest or weed control at 10 ppm (Pyricularia oryze; [5]) of 50%.
In the case of `O=C(Cc1ccccc1)N/C(=N\OCC1CC1)c1c(C(F)(F)F)ccc(F)c1F` [cyflufenamid], the pest or weed control at 0.4 ppm [3, 11] is reported as 67% and the pest or weed control at 0.4 ppm (Sphaerotheca fuliginea; [12]) is reported as 50%.
In the case of `Fc1ccc(Oc2ccnc3cc(Cl)cc(Cl)c23)cc1` [quinoxyfen], the pest or weed control at 250 ppm (Puccinia recondita; [9]) is reported as 0%, the pest or weed control at 250 ppm (Botrytis cinerea; [10]) is reported as 0% and the pest or weed control at 2 ppm [3, 11] is reported as 93%. The pest or weed control at 2 ppm (Sphaerotheca fuliginea; [12]) was 83%.
Molecule `CC(C)NC(=O)N1CC(=O)N(c2cc(Cl)cc(Cl)c2)C1=O` [iprodione] has a pest or weed control at 250 ppm (Pyricularia oryze; [5]) of 0%, a pest or weed control at 250 ppm (Puccinia recondita; [9]) of 33% and a pest or weed control at 2 ppm (Botrytis cinerea; [10]) of 40%. It also gave a pest or weed control at 250 ppm [3, 11] of 17% and a pest or weed control at 250 ppm (Sphaerotheca fuliginea; [12]) of 33%.
